Data set [1] addresses T1, human adenosine A2A receptor (Homo sapiens, UniProt P29274).
T1 construct: expressed in transfected cells; host or cells: CHO cells, semliki forest virus expression system; membrane preparation
The data set is described as follows: [3H]-SCH-58261 binding assay on human adenosine A2A receptor expressed in CHO cell membranes (SPA). The settings on record: displacement of [3H]-SCH-58261 (1 nM); recombinant receptor in CHO membranes; Ki by Cheng-Prussoff equation; read-out: hA2 (pKi) (converted). On the procedure: Human Adenosine A2A Receptor
The human adenosine A2A receptor was recombinantly expressed in Chinese hamster ovary (CHO) cells using the semliki forest virus expression system. Cells were harvested, washed twice by centrifugation, homogenized and again washed by centrifugation. The final washed membrane pellet was suspended in a Tris (50 mM) buffer containing 120 mM NaCl, 5 mM KCl, 2 mM CaCl2 and 10 mM MgCl2 (pH 7.4) (buffer A). The [^3H]-SCH-58261 (Dionisotti et al., 1997, Br J Pharmacol 121, 353; 1 nM) binding assay was carried out in 96-well plates in the presence of 2.5 μg of membrane protein, 0.5 mg of Ysi-poly-1-lysine SPA beads and 0.1 U adenosine deaminase in a final volume of 200 μl of buffer A. Non-specific binding was defined using xanthine amine congener (XAC; 2 μM). Compounds were tested at 10 concentrations from 10 μM-0.3 nM. All assays were conducted in duplicate and repeated at least two times. Assay plates were incubated for 1 hour at room temperature before centrifugation and then bound ligand determined using a Packard Topcount scintillation counter. IC50 values were calculated using a non-linear curve fitting program and Ki values calculated using the Cheng-Prussoff equation.

T1 sequence (P29274 whole entry): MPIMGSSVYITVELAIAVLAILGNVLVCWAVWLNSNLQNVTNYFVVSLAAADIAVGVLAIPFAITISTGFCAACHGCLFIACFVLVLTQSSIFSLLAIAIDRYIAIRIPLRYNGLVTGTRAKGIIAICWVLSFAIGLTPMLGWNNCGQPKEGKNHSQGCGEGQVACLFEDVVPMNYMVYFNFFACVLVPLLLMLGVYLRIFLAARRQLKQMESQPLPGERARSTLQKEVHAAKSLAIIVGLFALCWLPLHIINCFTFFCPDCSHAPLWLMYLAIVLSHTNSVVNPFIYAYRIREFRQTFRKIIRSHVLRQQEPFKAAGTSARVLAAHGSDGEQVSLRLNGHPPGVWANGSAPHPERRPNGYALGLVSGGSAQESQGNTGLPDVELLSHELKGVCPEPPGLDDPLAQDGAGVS

In general, melting point refers to the temperature of the solid-liquid transition. The molecule `COc1ccc(N2CCOCC2)c2sc(NC(=O)c3cnn(CCN4CCCC4)c3)nc12` [Example 5, 1-(2-Pyrrolidin-1-yl-ethyl)-1H-pyrazole-4-carboxylic acid (4-methoxy-7-morpholin-4-yl-benzothiazol-2-yl)-amide] displayed a melting point of 190 to 192 °C. Besides, the Ki in data set [1] is 0.794 nM.

With `COc1ccc(N2CCOCC2)c2sc(NC(=O)c3cnc(CN(C)C)n3C)nc12` [Example 2, 2-Dimethylaminomethyl-3-methyl-3H-imidazole-4-carboxylic acid (4-methoxy-7-morpholin-4-yl-benzothiazol-2-yl)-amide], the melting point lay in the range of 229 to 231 °C. In addition, in data set [1], the Ki was 0.631 nM.

`COc1ccc(N2CCOCC2)c2sc(NC(=O)c3cnn(CCN(C)C)c3)nc12` [Example 6, 1-(2-Dimethylamino-ethyl)-1H-pyrazole-4-carboxylic acid (4-methoxy-7-morpholin-4-yl-benzothiazol-2-yl)-amide] gave a melting point of 203 to 205 °C. Further, the Ki in data set [1] was 0.794 nM.

The molecule `COc1ccc(N2CCOCC2)c2sc(NC(=O)c3cnn(CCN4CCOCC4)c3)nc12` [Example 7, 1-(2-Morpholin-4-yl-ethyl)-1H-pyrazole-4-carboxylic acid (4-methoxy-7-morpholin-4-yl-benzothiazol-2-yl)-amide] showed a melting point of 204 to 207 °C. For the same molecule, the Ki in data set [1] was 1 nM.

As for `COCCn1cc(C(=O)Nc2nc3c(OC)ccc(N4CCOCC4)c3s2)cn1` [Example 8, 1-(2-Methoxy-ethyl)-1H-pyrazole-4-carboxylic acid (4-methoxy-7-morpholin-4-yl-benzothiazol-2-yl)-amide], the Ki in data set [1] is 0.398 nM.

Molecule `COCc1ncc(C(=O)Nc2nc3c(OC)ccc(N4CCOCC4)c3s2)n1C` [Example 9, 2-Methoxymethyl-3-methyl-3H-imidazole-4-carboxylic acid (4-methoxy-7-morpholin-4-yl-benzothiazol-2-yl)-amide] yielded a melting point of 242 to 245 °C. Further, in data set [1], the Ki was 0.501 nM.

`COc1ccc(N2CCOCC2)c2sc(NC(=O)c3cnc(CN4CCOCC4)n3C)nc12` [Example 3, 3-Methyl-2-morpholin-4-ylmethyl-3H-imidazole-4-carboxylic acid (4-methoxy-7-morpholin-4-yl-benzothiazol-2-yl)-amide] displayed a melting point of 244 to 246 °C. The Ki in data set [1] was 0.631 nM.

In turn, `COCCN(C)Cc1ncc(C(=O)Nc2nc3c(OC)ccc(N4CCOCC4)c3s2)n1C` [Example 1, 2-{[(2-Methoxy-ethyl)-methyl-amino]-methyl}-3-methyl-3H-imidazole-4-carboxylic acid (4-methoxy-7-morpholin-4-yl-benzothiazol-2-yl)-amide] yielded a melting point of 176 to 178 °C. The Ki in data set [1] was 0.501 nM.

For `COc1ccc(N2CCOCC2)c2sc(NC(=O)c3cnc(CN4CCCC4)n3C)nc12` [Example 4, 3-Methyl-2-pyrrolidin-1-ylmethyl-3H-imidazole-4-carboxylic acid (4-methoxy-7-morpholin-4-yl-benzothiazol-2-yl)-amide], the melting point was found to be 255 °C. The Ki in data set [1] is 1.58 nM.

Values taken from US7371749B2, “Benzothiazole derivatives” (Hoffmann-La Roche Inc., priority 2004, dated 2008).
